The text below walks through data of patent US10844013B2, “Phenyl amino piperidine mTORC inhibitors and uses thereof” (Navitor Pharmaceuticals, Inc., priority 2016, dated 2020).

In test [1] the test system is pAKT (p-Akt 1/2/3 (Ser473)) in MCF-7 cells. As to the kind of experiment: AlphaLISA Ultra pAKT assay. The class given is cell-based. As to the method: Example 156: AlphaLISA Ultra pAKT Assay
(§1) Assay Protocol: • 1. MCF-7 cells in Corning 3701 plate and incubate for 20-24 hour. 16,000-20,000 cells will be seeded in 36 μL medium per well. • 2. Change the culture medium with fresh medium and incubate for another 2 hours. • 3. Add 12 μL (4×) compounds into the cell plate by HAMILTON. Final DMSO concentration is 0.5%. Incubate for 2 hours. • 4. Aspirate 38 j L by HAMILTON, 10 μL rest per well. • 5. Add 10 μL 2× lysis buffer using HAMILTON; total volume in wells is 20 μL. Allow cells to shake for 30 min. Cover plate by plastic foil and store plate at −80° C. up to analysis. • 6. Thaw cell lysate at RT and transfer 10 ul lysate to assay plate (Optiplate-384). • 7. Add 5 ul acceptor beads into assay plate and incubation for 2 hours • 8. Add 5 ul donor beads and incubation for 2 hours • 9. Count the plate by EnSpire Multimode Plate Reader
In general terms: Alpha assays give light when donor and acceptor beads are brought close together.

The subject of test [2] is pS6K1 (p-p70 S6 Kinase (Thr389)) in MCF-7 cells. Kind of test: AlphaLISA Ultra pS6K1 assay. The class given is cell-based. To be noted: 2 hours compound incubation. Here is the method: Example 155: AlphaLISA Ultra pS6K1 assay
as §1, with “1. Seed” for “1.”, “20˜24” for “20-24”, “12,000˜16,000” for “16,000-20,000”, “μL” for “j L”

[3] abbreviates: Homo sapiens, MCF7, 2 hours compound incubation.

Where a name gives a salt, the structure may show the parent alone. Read-outs that look alike come from different tables or passages of the source.

A word on the IC50: it is the concentration at which inhibition is half-maximal. Take `Cc1cc(C)c(C(=O)N2CCN(c3ccccn3)C(=O)C2)c(C)c1NC1CCN(c2ccc(F)cc2C#N)CC1` [I-143, 5-fluoro-2-[4-({2,4,6-trimethyl-3-[3-oxo-4-(pyridin-2-yl)piperazine-1-carbonyl]phenyl}amino)piperidin-1-yl] benzonitrile]: the IC50 in test [1] (setting [3]) is more than 10000 nM; in test [2] (Homo sapiens, MCF7, 2 h), 10 to 1000 nM.
The like results for `Cc1cc(C)c(N(CC(N)=O)C2CCN(c3ccccc3C#N)CC2)cc1C(=O)N1CCN(c2ccccc2S(N)(=O)=O)CC1` [I-27, 2-((1-(2-Cyanophenyl)piperidin-4-yl)(2,4-dimethyl-5-(4-(2-sulfamoylphenyl)piperazine-1-carbonyl)phenyl)amino)acetamide] were, in that order, more than 10000 nM and 1000 to 3000 nM.
In the case of `Cc1cc(C)c(C(=O)N2CCN(c3cccnn3)[C@H](CO)C2)c(C)c1NC1CCN(c2ccccc2C#N)CC1` [I-140, 2-[4-({3-[(3S)-3-(hydroxy-methyl)-4-(pyridazin-3-yl)piperazine-1-carbonyl]-2,4,6-trimethyl-phenyl}amino)piperidin-1-yl] benzonitrile], the IC50 in test [1] (setting [3]) is more than 10000 nM; in test [2] (Homo sapiens, MCF7, 2 h), 10 to 1000 nM.
The like results for `Cc1cc(C)c(C(=O)N2CCN(CC(F)(F)F)[C@@H](CO)C2)cc1NC1CCN(c2ccccc2C#N)CC1` [I-96, (R)-2-(4-(5-(3-(Hydroxymethyl)-4-(2,2,2-trifluoroethyl)piperazine-1-carbonyl)-2,4-dimethylphenylamino)piperidin-1-yl)benzonitrile] were, in that order, more than 10000 nM and 3000 to 5000 nM.
With `Cc1ccc(NC2CCN(c3ccccc3C#N)CC2)cc1C(=O)N1CCN(c2ccccc2)C(CO)C1` (single isomer, unassigned) [I-83, 2-[4-({3-[(3S or R)-3-(hydroxymethyl)-4-phenylpiperazine-1-carbonyl]-4-methylphenyl}amino)piperidin-1-yl]benzonitrile], the IC50 in test [1] (2 hours compound incubation, read-out: pAKT in MCF7: IC50) is more than 10000 nM; in test [2] (read-out: pS6K1 in MCF7: IC50), 10 to 1000 nM.
With `Cc1cc(C)c(C(=O)N2CCN(c3ccccc3C#N)CC2)cc1NC1CCN(c2cccc(C#N)c2)CC1` [I-18, 2-(4-(5-(1-(3-Cyanophenyl)piperidin-4-ylamino)-2,4-dimethylbenzoyl)piperazin-1-yl)benzonitrile trifluoroacetate], the IC50 in test [1] (setting [3]) is more than 10000 nM; in test [2] (Homo sapiens, MCF7, 2 h) it was 1000 to 3000 nM.
Regarding `Cc1ccc(C(=O)N2CCN(c3ccccc3S(N)(=O)=O)CC2)c(C)c1NC1CCN(c2ccccc2C#N)CC1` [I-124, 2-[4-[3-[[1-(2-cyanophenyl)-4-piperidyl]amino]-2,4-dimethyl-benzoyl]piperazin-1-yl]benzenesulfonamide], the IC50 in test [1] (setting [3]) is more than 10000 nM; in test [2] (Homo sapiens, MCF7, 2 h) it was 10 to 1000 nM.
Consider `Cc1cc(C)c(C(=O)N2CCN(c3ncccc3S(N)(=O)=O)CC2)c(C)c1N[C@H]1CCN(c2ccccc2C#N)C[C@@H]1C` [I-181, 2-(4-(3-(((3S,4S)-1-(2-cyanophenyl)-3-methylpiperidin-4-yl)amino)-2,4,6-trimethylbenzoyl)piperazin-1-yl)pyridine-3-sulfonamide], for which the IC50 in test [1] (setting [3]) was more than 10000 nM; in test [2] (Homo sapiens, MCF7, 2 h), 10 to 1000 nM.
The like results for `CCCN(c1cc(C(=O)N2CCN(c3ccccc3S(N)(=O)=O)CC2)c(C)cc1C)C1CCN(c2ccccc2C#N)CC1` [I-23, 2-(4-(5-((1-(2-Cyanophenyl)piperidin-4-yl)(propyl)amino)-2,4-dimethylbenzoyl)piperazin-1-yl)benzenesulfonamide] were, in that order, more than 10000 nM and 1000 to 3000 nM.
The like results for `Cc1cc(C)c(C(=O)N2CCN(c3ccccc3)C(C(=O)O)C2)cc1NC1CCN(c2ccccc2C#N)CC1` (stereo not shown) [I-39, 4-(5-{[1-(2-cyanophenyl)piperidin-4-yl]amino}-2,4-dimethylbenzoyl)-1-phenylpiperazine-2-carboxylic Acid] were, in that order, more than 10000 nM and more than 10000 nM.
Take `N#Cc1ccccc1N1CCC(Nc2cc(C(=O)N3CCN(c4ccccc4S(N)(=O)=O)CC3)c(Cl)cc2Cl)CC1` [I-125, 2-(4-(2,4-dichloro-5-(1-(2-cyanophenyl)piperidin-4-ylamino)benzoyl)piperazin-1-yl)benzenesulfonamide]: the IC50 in test [1] (setting [3]) was more than 10000 nM; in test [2] (Homo sapiens, MCF7, 2 h) it was more than 10000 nM.
